# Entries after “also recorded” stand apart in the source; their conditions may differ. Like-named read-outs stand apart in the source and are kept apart here. Where a SMILES comes first, the peptide text is derived from it.
# How the values were obtained:
# human erythrocytes = assay: Hemolysis of human erythrocytes; assay type: cell-based
# Description: Antimicrobial and Hemolytic Assays. Antimicrobial susceptibility testing against Staphylococcus aureus (ATCC 29213), Escherichia coli (ATCC 25922), and Pseudomonas aeruginosa (ATCC 27853) was performed using a modification of the National Committee for Clinical Laboratory Standards microdilution broth assay (22). Mueller-Hinton broth (BBL) was used for diluting the peptide stock solution and for diluting the bacterial inoculum. The inoculum was prepared from mid-logarithmic phase cultures. […] The final concentration of peptide solution ranged-from 0.25 to 256 μg/mL in two-fold dilutions. The final concentration of bacteria in the wells was 5×10^5 CFU/mL. Peptides were tested in duplicate. In addition to the test peptide, three standard peptides and a non-treated growth control were included to validate the assay. The microtiter plates were incubated overnight at 37° C. and the absorbance was measured at 600 nm. […] After incubation at 37° C. for 30 min, the suspension was centrifuged at 10,000×g for 10 min and the absorbance at 400 nm was measured.
# [1] = test system: Candida albicans (ATCC 14053)
# Description: Antimicrobial and Hemolytic Assays. Antimicrobial susceptibility testing against Staphylococcus aureus (ATCC 29213), Escherichia coli (ATCC 25922), and Pseudomonas aeruginosa (ATCC 27853) was performed using a modification of the National Committee for Clinical Laboratory Standards microdilution broth assay (22). Mueller-Hinton broth (BBL) was used for diluting the peptide stock solution and for diluting the bacterial inoculum. The inoculum was prepared from mid-logarithmic phase cultures. Microtiter plate wells received aliquots-of 100 μL each of the inoculum and peptide dilution. The final concentration of peptide solution ranged-from 0.25 to 256 μg/mL in two-fold dilutions. The final concentration of bacteria in the wells was 5×10^5 CFU/mL. Peptides were tested in duplicate. In addition to the test peptide, three standard peptides and a non-treated growth control were included to validate the assay. The microtiter plates were incubated overnight at 37° C. and the absorbance was measured at 600 nm. […] After incubation at 37° C. for 30 min, the suspension was centrifuged at 10,000×g for 10 min and the absorbance at 400 nm was measured. Complete hemolysis was determined by adding 0.2% Triton X-100 in place of the peptide.
# Antimicrobial susceptibility testing against Escherichia coli (ATCC 25922), Staphylococcus aureus (ATCC 29213), Pseudomonas aeruginosa (ATCC 27853), and Candida albicans (ATCC 14053) is performed using a modification of the National Committee for Clinical Laboratory Standards microdilution broth assay. Mueller-Hinton broth (BBL) is used for diluting the peptide stock solution and for diluting the bacterial inoculum. The inoculum is prepared from midlogarithmic phase cultures at an approximate concentration of 10^6 CFU/mL. Microtiter plate wells receive aliquots of 0.1 mL each of the inoculum and peptide dilution. The final concentration of the peptide solution ranges from 0.25 to 256 μg/mL in 2-fold dilutions. The microtiter plates are incubated overnight at 37° C.
# [2] = test system: Staphylococcus aureus (ATCC 29213); assay type: cell-based
# [3] = test system: Pseudomonas aeruginosa (ATCC 27853); assay type: cell-based
# [4] = test system: Escherichia coli (ATCC 25922); assay type: cell-based
# [5] = Peptide-induced leakage from calcein-loaded LUV
# microorganisms = conditions: literature (52, 54); E. coli, S. aureus, P. aeruginosa for FKVKFKVKVK; cited from earlier work
# [6] = POPC/POPG LUV, all ratios (1:1 to 4:1)
Compound,"% Hemolysis (500 μg/mL) (human erythrocytes; red cells of human, 500) [%]","Minimum Inhibitory Concentration, C. albicans ([1]; ATCC 14053) [µg/mL]","Minimum Inhibitory Concentration, S. aureus ([2]; ATCC 29213) [µg/mL]","Minimum Inhibitory Concentration, P. aeruginosa ([3]; ATCC 27853) [µg/mL]","Minimum Inhibitory Concentration, E. coli ([4]; ATCC 25922) [µg/mL]",calcein leakage from LUV (in words) ([5]; 4:1 POPE/POPG LUV),calcein leakage from LUV (in words) ([5]; POPC (PC) LUV),"calcein leakage from LUV (in words) [5, 6]",also measured
"CC[C@H](C)[C@H](NC(=O)[C@H](CCCCN)NC(=O)CNC(=O)[C@H](C)NC(=O)[C@@H](NC(=O)[C@H](CCCCN)NC(=O)[C@H](C)NC(=O)[C@@H](NC(=O)[C@H](CCCCN)NC(=O)CNC(=O)[C@H](C)NC(=O)[C@@H](NC(=O)[C@H](CCCCN)NC(=O)[C@H](C)NC(=O)[C@@H](NC(=O)[C@H](CCCCN)NC(=O)CNC(=O)[C@H](C)NC(=O)[C@@H](NC(=O)[C@@H](N)CCCCN)[C@@H](C)CC)[C@@H](C)CC)[C@@H](C)CC)[C@@H](C)CC)[C@@H](C)CC)C(=O)N[C@@H](C)C(N)=O [(KIAGKIA)3-NH2, KIAGKIAKIAGKIAKIAGKIA -NH2, reference compound] (H-KIAGKIAKIAGKIAKIAGKIA-NH2; N-terminus assumed)",9,64,8,32,8,most potent,not very effective,–,MIC Staph. aureus ([2]; ATCC 29213): 8 µg/mL; MIC Pseud. aerug ([3]; ATCC 27853): 32 µg/mL; MIC E. coli ([4]; ATCC 25922): 8 µg/mL
"CC[C@H](C)[C@H](NC(=O)[C@H](CCCCN)NC(=O)[C@H](C)NC(=O)CNC(=O)[C@@H](NC(=O)[C@H](CCCCN)NC(=O)[C@@H](NC(=O)[C@H](CCCCN)NC(=O)[C@H](C)NC(=O)CNC(=O)[C@@H](NC(=O)[C@H](CCCCN)NC(=O)[C@@H](NC(=O)[C@H](CCCCN)NC(=O)[C@H](C)NC(=O)CNC(=O)[C@@H](NC(=O)[C@@H](N)CCCCN)[C@@H](C)CC)[C@@H](C)CC)[C@@H](C)CC)[C@@H](C)CC)[C@@H](C)CC)C(N)=O [(KIGAKI)3-NH2, K I G A K I K I G A K I K I G A K I -NH2] (H-KIGAKIKIGAKIKIGAKI-NH2)",–,–,–,–,–,most potent,not very effective; also recorded: low lytic activity,least potent,"% Hemolysis (500 μg/mL) (human erythrocytes; 500 μg/mL peptide, 5% human erythrocytes, 37° C., 30 min): 3%; Minimum Inhibitory Concentration, C. albicans ([1]; Table 2): 64 µg/mL; Minimum Inhibitory Concentration, S. aureus ([2]; Table 2, overnight at 37° C.): 16 µg/mL; MIC Staph. aureus ([2]; Table 4): 8 µg/mL; Minimum Inhibitory Concentration, P. aeruginosa ([3]; Table 2, overnight at 37° C.): 32 µg/mL; MIC Pseud. aerug ([3]; Table 4): 32 µg/mL; Minimum Inhibitory Concentration, E. coli ([4]; Table 2, overnight at 37° C.): 8 µg/mL; MIC E. coli ([4]; Table 4): 8 µg/mL"
"CC[C@H](C)[C@H](NC(=O)[C@H](C)NC(=O)CNC(=O)[C@H](C)NC(=O)[C@H](CCCCN)NC(=O)[C@H](CO)NC(=O)[C@H](C)NC(=O)[C@H](CCSC)NC(=O)CN)C(=O)N[C@@H](C)C(=O)NCC(=O)N[C@@H](CCCCN)C(=O)N[C@H](C(=O)N[C@@H](C)C(=O)N[C@@H](CCCCN)C(=O)N[C@H](C(=O)N[C@@H](C)C(=O)N[C@@H](CC(C)C)C(=O)N[C@@H](CCCCN)C(=O)N[C@@H](C)C(=O)N[C@@H](CC(C)C)C(N)=O)C(C)C)[C@@H](C)CC [PGLa, GMASKAGAIAGKIAKVALKAL -NH2, reference compound] (H-GMASKAGAIAGKIAKVALKAL-NH2; N-terminus assumed)",1,128,64,128,32,quite low,not very effective,most potent,calcein release from LUV (in words) ([5]; POPG LUV): most potent
FKVKFKVKVK (artificial mutant),–,–,–,–,–,–,–,–,antimicrobial or hemolytic activity as reported in the literature (microorganisms): able to inhibit the growth
